The subject of this data set is mouse apoE gene. Nature of the data set: gRNA screening by next generation sequencing for INDEL frequency in B16-F10 cells. It counts as cell-based. The conditions noted are these: RNP electroporated into B16-F10 cells; NGS. Here is the method:
Six guide RNAs (gRNAs) were designed using IDT's gRNA design tool, targeting the mouse apoE gene. gRNAs were synthesized as 2-part crRNA: tracrRNA gRNAs with chemical modifications (Integrated DNA Technologies, Inc., IA) and were functionally screened by next generation sequencing (NGS) for high INDEL (insertion/deletion) frequency and low in-frame INDEL rates. gRNAs were prepared by complexing a 1:1 molar ratio of the crRNA: tracrRNA at a final concentration of 100 μM, heating to 95° C. and slowly cooling to room temperature. […]
The electroporated cells were plated in 1 well of a 6-well plate and allowed to grow until confluent. The cells were then dissociated by trypsinization, resuspended in media, and counted. […] The genomic DNA from each well was subject to quantification of total editing and analysis of INDEL profile by NGS to confirm a monoclonal isolate.
Genomic DNA libraries for sequencing were prepared using IDT rhAmpSeq targeted amplification. […] Libraries were purified using Agencourt® AMPure® XP system (Beckman Coulter, Brea, CA, USA) with a 1:1 ratio of beads to reaction by volume and quantified with quantitative real-time PCR (qPCR) before loading onto the Illumina® MiSeq platform (Illumina, San Diego, CA, USA). Paired end 150 base pair reads were sequenced using V2 chemistry. A sequencing depth of at least 1000 reads was obtained for each sample. […]

Data on one sequence can be found in US20250011404A1, “TARGETING APOE ENHANCES T-CELL KILLING IN CANCER IMMUNOTHERAPY” (Children's National Medical Center, priority 2021, published 2025).

As to “GGACACTATGACGGAAGTAA (listed as DNA, chemistry not given here) [Mm. Cas9.APOE.1-E]”, the INDEL frequency is given as 99% and the “in-frame INDELs” value is recorded as “no”.
